Test results reported in article PMC12457078, “Inhibition of soluble epoxide hydrolase in endotoxin induced pig lung injury” (Frontiers in Pharmacology, 2025).
Values joined by “and” are separate entries in the source; they are usually repeats but may differ in a detail not shown here. Equal values may be shown once. Read-outs that look alike come from different tables or passages of the source.

Experiments:
[1] = pharmacokinetic pilot, continuous infusion in one animal; format: in vivo, pig
Method: (§1) One animal served as a pharmacokinetic pilot, with arterial and venous catheters placed in a cut-down in the neck. The remaining 21 animals were used for the randomized study (Figure 1). After intubation and start of mechanical ventilation, a second auricular vein cannula was placed and infusion of either AEPU or placebo according to randomization was started. After 2 h of infusion of AEPU or placebo, an infusion of LPS was started. A bolus of 0.1 mg/kg was administered during 30 min after which the infusion rate was adjusted to 0.01 mg/kg/h. During the time between start of AEPU or placebo and LPS infusion, neck dissection was performed, exposing the v jugularis externa and carotid artery. A pulmonary artery introducer and an arterial cannula were placed in vein and artery respectively, and a pulmonary artery catheter introduced through the introducer and the tip placed in the correct position in the pulmonary artery placement guided by continuous invasive pressure monitoring or, when difficult, assisted by fluoroscopy. All surgical procedures were performed under sterile conditions.
(§2) AEPU was synthesized according to Kim et al. ([Kim et al., 2007]), delivered in 60 mg vials and dissolved in 30 mL pure ethanol as a co-solvent, of which either 20 mL was added to 980 mL of sodium chloride 9 mg/mL or 8 mL–392 mL sodium chloride, creating a solution of 0.04 mg/mL AEPU and 2% ethanol. The placebo infusion was prepared by adding either 20 mL of pure ethanol to 980 mL of sodium chloride 9 mg/mL or 8 mL of pure ethanol to 392 mL sodium chloride, creating a 2% ethanol solution. Each animal received an infusion of either 0.1 mg/kg/h AEPU or the corresponding volume of placebo solution.
Infusion of AEPU at 0.1 mg/kg/h produced a progressive rise in blood concentration reaching steady state of approximately 200 nM at 120 min, maintained with only minor variations until the termination of infusion at 255 min. The elimination of AEPU after termination of infusion was rapid, showing complete elimination within 15 min (Figure 2).

[2] = as above; format: in vivo; settings: pig, whole blood, intravenous, 0.1 mg/kg/h, time 240 minutes (STOP INFUSION), read-out: Conc in blood 950
[3] = AEPU blood concentrations in LPS-treated pigs; format: in vivo, pig; settings: for AEPU conc, In 10uL blood / AEPU conc, In analyte: listed as AEPU
Method: as §1, §2
All animals were monitored with pulse oximetry, heart rate, ECG, systemic arterial blood pressure (ABP), pulmonary arterial pressure (PAP), central venous pressure (CVP) temperature, tidal volumes, respiratory rate and end tidal carbon dioxide. At baseline, and at 3 h, 6 h and at the end of the experiment, pulmonary capillary wedge pressure (PCWP) was measured together with arterial and venous blood gas analyses, as well as cardiac output calculations. Routine chemistry, including creatinine, bilirubin, glucose, electrolytes were collected at baseline and at the end of the experiment (Vetscan VS2®, Abaxis, Griesheim, Germany). Blood samples for measurement of AEPU plasma concentrations, as well as oxylipins (i.e., EpETrEs and their DiHETrE corresponding diols as well as related compounds with other polyunsaturated fatty acid precursors), were collected at baseline, 6 h and at the end of the experiment. Oxylipin analysis was performed according to a previously published protocol ([Gouveia-Figueira and Nording, 2015]).

[4] = liver microsomal assay (metabolic stability); format: in vitro ADME, pig
Method: To further characterize the inhibitors with regard to suitability for administration in pigs, a microsomal assay was used to determine metabolic stability ([Ackley et al., 2004]) for a subset of eight inhibitors chosen for their potency and availability. Microsomal preparations from pig liver were purchased from XenoTech (Kansas City, KS, US). Microsomes, buffer and NADPH generating system were combined, and then the inhibitor was added. The reaction was stopped after 35 min with ice cold acetonitrile containing internal standard (12-[[(cyclohexylamino)carbonyl]amino]-dodecanoic acid). The amount left of parent inhibitor was determined with LC-MS/MS.

For `CCOCCOCCOCCCCCNC(=O)NC12CC3CC(CC(C3)C1)C2` [Compound 950], the “time to complete elimination after termination of infusion” value ([1]; infusion 0.1 mg/kg/h) was no more than 15 min, the concentration at 0 min ([1]; pig, whole blood, intravenous, 0.1 mg/kg/h, time 0 minutes, read-out: Conc in blood 950) was 11 ng/mL and the concentration at 5 min ([1]; pig, whole blood, intravenous, 0.1 mg/kg/h, time 5 minutes, read-out: Conc in blood 950) was 45 ng/mL. It also gave a concentration at 35 min ([1]; pig, whole blood, intravenous, 0.1 mg/kg/h, time 35 minutes, read-out: Conc in blood 950) of 116 ng/mL, a concentration at 65 min ([1]; pig, whole blood, intravenous, 0.1 mg/kg/h, time 65 minutes, read-out: Conc in blood 950) of 174 ng/mL and a concentration at 121 min ([1]; pig, whole blood, intravenous, 0.1 mg/kg/h, time 121 minutes, read-out: Conc in blood 950) of 199 ng/mL. It also gave a concentration at 185 min ([1]; pig, whole blood, intravenous, 0.1 mg/kg/h, time 185 minutes, read-out: Conc in blood 950) of 202 ng/mL, a concentration at 255 min ([1]; pig, whole blood, intravenous, 0.1 mg/kg/h, time 255 minutes, read-out: Conc in blood 950) of 224 ng/mL and a concentration at 270 min ([1]; pig, whole blood, intravenous, 0.1 mg/kg/h, time 270 minutes, read-out: Conc in blood 950) of 0.189 ng/mL. For the same compound, the concentration at 285 min ([1]; pig, whole blood, intravenous, 0.1 mg/kg/h, time 285 minutes, read-out: Conc in blood 950) was 0.189 ng/mL, the concentration at 300 min ([1]; pig, whole blood, intravenous, 0.1 mg/kg/h, time 300 minutes, read-out: Conc in blood 950) was 0.189 ng/mL and the concentration at 330 min ([1]; pig, whole blood, intravenous, 0.1 mg/kg/h, time 330 minutes, read-out: Conc in blood 950) was 0.189 ng/mL. For the same compound, the concentration at 120 min ([1]; pig, whole blood, intravenous, infusion 0.1 mg/kg/h, reached at 120 min, read-out: steady state blood concentration) was roughly 200 nM, the concentration at 240 min [2] was 199 ng/mL and the “950 in blood spots” value ([3]; 6 h, individual pigs) was 61 nM and 53 nM and 118 nM and 49 nM and 77 nM and 123 nM and 162 nM and 99 nM and 66 nM. For the same compound, the “950 in blood spots” value ([3]; 9 h, individual pigs) was 163 nM and 42 nM and 48 nM and 79 nM and 172 nM and 149 nM, the concentration at 9 h ([3]; LPS start, average of pigs, read-out: 950 in blood spots, Average) was 62 nM and the “950 in blood spots” value ([3]; LPS start, individual pigs) was 51 nM and 47 nM and 84 nM and 48 nM and 63 nM and 96 nM and 53 nM and 65 nM and 50 nM. For the same compound, the concentration at 6 h ([3]; pig, whole blood (blood spots), intravenous, 0.1 mg/kg/h, 6 h, average of pigs, read-out: 950 in blood spots, Average) was 90 nM, the concentration at 9 h ([3]; pig, whole blood (blood spots), intravenous, 0.1 mg/kg/h, 9 h, average of pigs, read-out: 950 in blood spots, Average) was 109 nM and the “AEPU conc, In 10uL blood” value ([3]; sample _6, individual pigs) was 64.4 ng/mL and 39.4 ng/mL and 26.3 ng/mL and 24.4 ng/mL and 20.9 ng/mL and 46.8 ng/mL and 19.5 ng/mL and 30.4 ng/mL and 48.8 ng/mL. The “AEPU conc, In analyte” value ([3]; sample _6, individual pigs) was 12.9 ng/mL and 7.9 ng/mL and 5.3 ng/mL and 4.9 ng/mL and 4.2 ng/mL and 9.4 ng/mL and 3.9 ng/mL and 6.1 ng/mL and 9.8 ng/mL, the “AEPU conc, In 10uL blood” value ([3]; sample _12, individual pigs) was 68.1 ng/mL and 58.9 ng/mL and 0.0 ng/mL and 64.5 ng/mL and 16.7 ng/mL and 19.0 ng/mL and 31.2 ng/mL and the “AEPU conc, In analyte” value ([3]; sample _12, individual pigs) was 13.6 ng/mL and 11.8 ng/mL and 12.9 ng/mL and 3.3 ng/mL and 3.8 ng/mL and 6.2 ng/mL. For the same compound, the “AEPU conc, In 10uL blood” value ([3]; sample _BL, individual pigs) was 21.0 ng/mL and 25.7 ng/mL and 19.7 ng/mL and 20.3 ng/mL and 18.6 ng/mL and 33.4 ng/mL and 19.2 ng/mL and 25.1 ng/mL and 38.0 ng/mL, the “AEPU conc, In analyte” value ([3]; sample _BL, individual pigs) was 4.2 ng/mL and 5.1 ng/mL and 3.9 ng/mL and 4.1 ng/mL and 3.7 ng/mL and 6.7 ng/mL and 3.8 ng/mL and 5.0 ng/mL and 7.6 ng/mL and the “metabolic stability” value [4] was “low”.
